Laboratory results from PMC12951562, “SH2scan: Mapping SH2 Domain-Ligand Binding Selectivity for Inhibitors and Degraders” (Journal of Medicinal Chemistry, 2026).
Non-standard residues stand in square brackets, D forms with d. Residues, ends and D or L forms follow the SMILES beside them. pY = N[C@@H](Cc1ccc(OP(=O)(O)O)cc1)C(=O)O

Key:
Test in all cases: biochemical
Type in all cases: binding
[1] = biological target: T1, PLCG2(SH2dom.C-term.) (Homo sapiens, UniProt P16885)
T1 construct: SH2dom.C-term. denotes SH2 domain closest to C-terminus of protein; made in house; host or cells: HEK293 (transient transfection, unpurified extract)
T1 sequence (P16885 646-735 limits assumed): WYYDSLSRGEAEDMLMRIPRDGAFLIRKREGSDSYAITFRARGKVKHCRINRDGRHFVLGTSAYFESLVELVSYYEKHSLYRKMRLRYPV

[2] = biological target: T2, SHF (Homo sapiens, UniProt Q7M4L6)
T2 construct: made in house; host or cells: HEK293 (transient transfection), unpurified extract
T2 sequence (Q7M4L6 1-423): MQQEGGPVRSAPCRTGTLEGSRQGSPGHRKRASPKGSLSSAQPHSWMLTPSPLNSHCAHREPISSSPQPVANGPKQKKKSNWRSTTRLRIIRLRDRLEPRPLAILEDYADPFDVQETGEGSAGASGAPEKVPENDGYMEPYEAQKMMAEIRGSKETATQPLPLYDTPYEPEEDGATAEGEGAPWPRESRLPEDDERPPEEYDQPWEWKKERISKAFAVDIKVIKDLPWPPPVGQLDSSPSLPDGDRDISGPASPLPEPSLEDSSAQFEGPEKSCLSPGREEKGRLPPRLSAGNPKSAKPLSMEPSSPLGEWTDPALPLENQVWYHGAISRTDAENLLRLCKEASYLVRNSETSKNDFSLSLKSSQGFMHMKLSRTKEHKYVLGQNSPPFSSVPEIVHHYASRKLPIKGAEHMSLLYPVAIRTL

[3] = biological target: T3, SOCS2 (Homo sapiens, UniProt O14508)
T3 construct: made in house; host or cells: HEK293 (transient transfection), unpurified extract
T3 sequence (O14508 1-198): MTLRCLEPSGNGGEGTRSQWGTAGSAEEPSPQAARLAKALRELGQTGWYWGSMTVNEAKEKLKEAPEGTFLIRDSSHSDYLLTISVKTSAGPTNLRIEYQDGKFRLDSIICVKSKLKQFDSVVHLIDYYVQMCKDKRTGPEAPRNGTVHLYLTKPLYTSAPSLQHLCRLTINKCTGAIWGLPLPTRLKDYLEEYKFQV

[4] = biological target: T4, SOCS6 (Homo sapiens, UniProt O14544)
T4 construct: made in house; host or cells: HEK293 (transient transfection), unpurified extract
T4 sequence (O14544 1-535): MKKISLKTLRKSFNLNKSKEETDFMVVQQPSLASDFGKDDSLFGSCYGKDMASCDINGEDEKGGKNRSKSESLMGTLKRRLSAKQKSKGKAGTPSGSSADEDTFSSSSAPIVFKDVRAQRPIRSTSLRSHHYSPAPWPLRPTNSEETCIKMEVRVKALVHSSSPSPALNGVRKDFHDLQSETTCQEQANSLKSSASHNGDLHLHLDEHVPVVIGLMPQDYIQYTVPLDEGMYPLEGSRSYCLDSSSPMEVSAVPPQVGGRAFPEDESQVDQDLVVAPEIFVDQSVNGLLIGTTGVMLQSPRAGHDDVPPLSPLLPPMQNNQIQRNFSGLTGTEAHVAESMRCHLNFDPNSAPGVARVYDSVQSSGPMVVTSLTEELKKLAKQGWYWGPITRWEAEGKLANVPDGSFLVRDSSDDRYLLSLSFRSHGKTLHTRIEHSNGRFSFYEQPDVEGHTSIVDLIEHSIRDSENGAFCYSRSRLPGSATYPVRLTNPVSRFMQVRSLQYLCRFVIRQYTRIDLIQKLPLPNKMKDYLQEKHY

[5] = biological target: T5, SOCS7 (Homo sapiens, UniProt O14512)
T5 construct: made in house; host or cells: HEK293 (transient transfection), unpurified extract
T5 sequence (O14512 1-581): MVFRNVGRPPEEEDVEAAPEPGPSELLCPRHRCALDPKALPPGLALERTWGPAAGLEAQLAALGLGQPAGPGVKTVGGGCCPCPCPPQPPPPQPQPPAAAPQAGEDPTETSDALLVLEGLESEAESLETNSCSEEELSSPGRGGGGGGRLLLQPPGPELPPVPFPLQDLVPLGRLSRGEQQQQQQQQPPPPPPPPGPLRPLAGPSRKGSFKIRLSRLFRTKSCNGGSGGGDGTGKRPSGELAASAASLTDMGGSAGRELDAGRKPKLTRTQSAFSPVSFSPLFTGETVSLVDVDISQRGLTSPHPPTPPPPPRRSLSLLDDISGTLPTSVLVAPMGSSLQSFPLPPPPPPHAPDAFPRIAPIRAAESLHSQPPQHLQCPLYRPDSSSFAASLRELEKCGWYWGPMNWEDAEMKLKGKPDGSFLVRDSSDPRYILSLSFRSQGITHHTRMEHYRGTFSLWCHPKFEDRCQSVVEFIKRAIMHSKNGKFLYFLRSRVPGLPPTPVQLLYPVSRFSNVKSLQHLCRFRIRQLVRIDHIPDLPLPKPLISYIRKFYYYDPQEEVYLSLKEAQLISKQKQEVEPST

[6] = biological target: T6, SHC1 (Homo sapiens, UniProt P29353)
T6 construct: made in house; host or cells: HEK293 (transient transfection), unpurified extract
T6 sequence (P29353 1-583): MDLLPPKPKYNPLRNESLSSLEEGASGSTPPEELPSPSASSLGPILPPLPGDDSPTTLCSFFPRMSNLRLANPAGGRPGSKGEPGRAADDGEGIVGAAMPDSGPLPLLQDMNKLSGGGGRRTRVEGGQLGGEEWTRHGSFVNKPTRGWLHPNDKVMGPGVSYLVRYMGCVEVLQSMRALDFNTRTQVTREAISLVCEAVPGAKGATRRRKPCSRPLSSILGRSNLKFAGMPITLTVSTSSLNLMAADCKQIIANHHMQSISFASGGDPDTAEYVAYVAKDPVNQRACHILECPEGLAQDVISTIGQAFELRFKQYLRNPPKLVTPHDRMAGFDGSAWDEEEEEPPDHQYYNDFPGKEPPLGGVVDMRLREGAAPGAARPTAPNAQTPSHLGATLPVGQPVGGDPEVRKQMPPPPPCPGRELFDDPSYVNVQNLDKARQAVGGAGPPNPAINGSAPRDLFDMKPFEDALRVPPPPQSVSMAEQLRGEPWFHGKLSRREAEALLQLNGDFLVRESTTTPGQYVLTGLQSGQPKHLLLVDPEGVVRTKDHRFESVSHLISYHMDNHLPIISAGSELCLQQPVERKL

[7] = biological target: T7, SHC2 (Homo sapiens, UniProt P98077)
T7 construct: made in house; host or cells: HEK293 (transient transfection), unpurified extract
T7 sequence (P98077 1-582): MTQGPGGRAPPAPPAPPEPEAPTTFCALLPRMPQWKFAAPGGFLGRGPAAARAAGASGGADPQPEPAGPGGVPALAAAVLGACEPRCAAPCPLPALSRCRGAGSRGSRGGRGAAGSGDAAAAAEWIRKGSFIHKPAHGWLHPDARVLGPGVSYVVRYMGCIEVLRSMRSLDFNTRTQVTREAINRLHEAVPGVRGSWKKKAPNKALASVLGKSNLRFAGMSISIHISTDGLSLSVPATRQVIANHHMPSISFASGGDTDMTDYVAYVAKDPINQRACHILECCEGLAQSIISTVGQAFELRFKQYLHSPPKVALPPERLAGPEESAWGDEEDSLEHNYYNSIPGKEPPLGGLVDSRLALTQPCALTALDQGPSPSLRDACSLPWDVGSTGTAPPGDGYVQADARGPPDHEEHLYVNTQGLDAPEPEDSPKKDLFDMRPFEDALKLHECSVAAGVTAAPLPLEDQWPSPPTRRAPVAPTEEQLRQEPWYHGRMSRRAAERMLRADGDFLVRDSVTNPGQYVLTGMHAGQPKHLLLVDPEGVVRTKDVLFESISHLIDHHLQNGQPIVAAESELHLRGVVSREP

[8] = biological target: T8, SHC3 (Homo sapiens, UniProt Q92529)
T8 construct: made in house; host or cells: HEK293 (transient transfection), unpurified extract
T8 sequence (Q92529 1-594): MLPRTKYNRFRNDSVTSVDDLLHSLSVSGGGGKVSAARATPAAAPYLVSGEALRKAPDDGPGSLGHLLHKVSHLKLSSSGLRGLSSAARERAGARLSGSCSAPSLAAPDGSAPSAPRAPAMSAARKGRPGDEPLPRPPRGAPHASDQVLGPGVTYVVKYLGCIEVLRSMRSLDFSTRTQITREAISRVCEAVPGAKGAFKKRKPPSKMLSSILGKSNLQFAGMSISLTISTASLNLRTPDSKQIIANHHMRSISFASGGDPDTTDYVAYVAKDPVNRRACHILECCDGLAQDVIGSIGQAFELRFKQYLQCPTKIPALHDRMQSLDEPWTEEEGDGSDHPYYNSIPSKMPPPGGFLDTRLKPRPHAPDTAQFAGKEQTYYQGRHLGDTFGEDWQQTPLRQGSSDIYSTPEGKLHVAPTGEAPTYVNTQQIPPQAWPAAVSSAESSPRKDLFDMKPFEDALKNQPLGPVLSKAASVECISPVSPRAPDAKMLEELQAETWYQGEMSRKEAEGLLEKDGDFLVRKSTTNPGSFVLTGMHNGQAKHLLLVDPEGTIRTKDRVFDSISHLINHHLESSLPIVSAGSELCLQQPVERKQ

[9] = biological target: T9, SHC4 (Homo sapiens, UniProt Q6S5L8)
T9 construct: made in house; host or cells: HEK293 (transient transfection), unpurified extract
T9 sequence (Q6S5L8 1-630): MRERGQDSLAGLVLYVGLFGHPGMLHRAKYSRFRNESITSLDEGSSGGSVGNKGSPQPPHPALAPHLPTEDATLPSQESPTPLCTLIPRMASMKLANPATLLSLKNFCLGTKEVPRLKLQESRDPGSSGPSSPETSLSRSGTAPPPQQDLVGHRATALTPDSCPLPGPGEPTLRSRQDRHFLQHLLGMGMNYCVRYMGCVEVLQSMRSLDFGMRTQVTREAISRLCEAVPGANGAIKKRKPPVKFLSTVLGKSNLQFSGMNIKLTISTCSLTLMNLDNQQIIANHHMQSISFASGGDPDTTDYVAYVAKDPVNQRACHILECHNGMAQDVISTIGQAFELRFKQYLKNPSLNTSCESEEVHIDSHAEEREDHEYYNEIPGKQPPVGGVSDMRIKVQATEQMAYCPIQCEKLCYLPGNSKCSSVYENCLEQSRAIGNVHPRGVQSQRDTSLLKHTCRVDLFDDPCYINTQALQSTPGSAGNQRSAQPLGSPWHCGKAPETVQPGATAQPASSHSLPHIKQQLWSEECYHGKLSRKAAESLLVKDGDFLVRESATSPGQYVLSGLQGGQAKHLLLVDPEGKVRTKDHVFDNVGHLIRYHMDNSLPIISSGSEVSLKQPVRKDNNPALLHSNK

[10] = biological target: T10, HCK (Homo sapiens, UniProt P08631)
T10 construct: the DNA-tagged SH2 domain concentrations used in this study were <0.1 nM; made in house; host or cells: HEK293 (transient transfection, unpurified extract)
T10 sequence (P08631 144-241 limits assumed): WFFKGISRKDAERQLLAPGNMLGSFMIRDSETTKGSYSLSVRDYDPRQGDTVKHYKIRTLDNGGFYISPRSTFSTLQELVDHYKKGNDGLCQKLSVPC

[11] = biological target: T11, LCK (Homo sapiens, UniProt P06239)
T11 construct: the DNA-tagged SH2 domain concentrations used in this study were <0.1 nM; made in house; host or cells: HEK293 (transient transfection, unpurified extract)
T11 sequence (P06239 127-224 limits assumed): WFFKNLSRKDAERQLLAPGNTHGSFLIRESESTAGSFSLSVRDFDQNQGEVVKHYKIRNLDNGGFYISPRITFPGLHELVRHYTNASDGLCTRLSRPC

[12] = biological target: T12, SRC (Homo sapiens, UniProt P12931)
T12 construct: made in house; host or cells: HEK293 (transient transfection), unpurified extract
T12 sequence (P12931 whole entry): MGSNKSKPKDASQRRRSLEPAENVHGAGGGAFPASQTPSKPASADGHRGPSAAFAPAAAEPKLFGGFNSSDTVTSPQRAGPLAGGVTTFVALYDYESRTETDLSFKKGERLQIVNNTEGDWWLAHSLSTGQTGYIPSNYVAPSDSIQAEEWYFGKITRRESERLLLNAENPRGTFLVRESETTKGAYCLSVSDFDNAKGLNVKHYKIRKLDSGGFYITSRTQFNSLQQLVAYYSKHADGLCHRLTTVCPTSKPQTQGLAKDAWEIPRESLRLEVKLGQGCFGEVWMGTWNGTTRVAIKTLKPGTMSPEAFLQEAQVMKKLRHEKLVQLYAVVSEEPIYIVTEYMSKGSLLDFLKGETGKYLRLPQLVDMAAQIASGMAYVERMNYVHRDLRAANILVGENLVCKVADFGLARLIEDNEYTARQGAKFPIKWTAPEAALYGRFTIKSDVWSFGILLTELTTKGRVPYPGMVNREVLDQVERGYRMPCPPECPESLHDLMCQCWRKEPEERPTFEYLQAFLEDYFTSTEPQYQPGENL

## CC[C@H](C)[C@H](NC(=O)[C@@H](NC(=O)[C@H](Cc1ccc(OP(=O)(O)O)cc1)NC(=O)[C@H](CO)NC(=O)[C@H](CCCNC(=N)N)NC(=O)[C@@H](NC(=O)[C@H](CO)NC(=O)[C@H](CCC(=O)O)NC(=O)[C@H](CCCCN)NC(=O)[C@H](CCCCN)NC(=O)[C@H](CCCCN)NC(=O)[C@H](CCCCN)NC(C)=O)[C@@H](C)O)C(C)C)C(=O)N[C@@H](CC(C)C)C(=O)N[C@@H](CO)C(=O)N[C@@H](Cc1ccccc1)C(=O)N[C@@H](CCC(=O)O)C(=O)N[C@@H](CC(N)=O)C(=O)N[C@@H](CC(N)=O)C(=O)NCC(N)=O (Ac-KKKKESTRS[pY]VILSFENNG-NH2)
[1]
  Kd: 0.0109 ± 0.00709 µM
[2]
  Kd: 1.47 ± 0.88 µM

## CC[C@H](C)[C@H](NC(=O)[C@H](Cc1ccc(O)cc1)NC(=O)[C@@H](NC(=O)[C@H](Cc1ccc(OP(=O)(O)O)cc1)NC(=O)[C@H](CC(N)=O)NC(=O)[C@H](CC(N)=O)NC(=O)CNC(=O)[C@H](CC(N)=O)NC(C)=O)C(C)C)C(=O)N[C@@H](CC(=O)O)C(=O)N1CCC[C@H]1C(=O)N[C@H](C(N)=O)[C@@H](C)O [Ac-NGNNpYVYIDPT-NH2]
[3]
  Kd: 4.2 ± 0.739 µM
[4]
  Kd: 0.0206 ± 0.00433 µM
[5]
  Kd: 11.7 ± 0.822 µM

## CC(=O)N[C@@H](CCC(=O)O)C(=O)N[C@@H](CC(N)=O)C(=O)N[C@@H](C)C(=O)N[C@@H](CCC(=O)O)C(=O)N[C@@H](Cc1ccc(OP(=O)(O)O)cc1)C(=O)N[C@@H](CC(C)C)C(=O)N[C@@H](CCCNC(=N)N)C(=O)N[C@H](C(=O)N[C@@H](C)C(N)=O)C(C)C [Ac-ENAEpYLRVA-NH2] (Ac-ENAE[pY]LRVA-NH2)
[6]
  Kd: 11 ± 1.26 µM
[7]
  Kd: 4.39 ± 0.413 µM
[8]
  Kd: 3.78 ± 0.472 µM
[9]
  Kd: 6.63 ± 0.773 µM

## CC[C@H](C)[C@H](NC(=O)[C@@H]1CCCN1C(=O)[C@@H](NC(=O)[C@H](CCC(=O)O)NC(=O)[C@H](CCC(=O)O)NC(=O)[C@H](Cc1ccc(OP(=O)(O)O)cc1)NC(=O)[C@H](CCC(N)=O)NC(=O)[C@@H]1CCCN1C(=O)[C@H](CCC(=O)O)NC(C)=O)[C@@H](C)CC)C(=O)N[C@@H](Cc1ccc(O)cc1)C(=O)N[C@@H](CC(C)C)C(N)=O (Ac-EPQ[pY]EEIPIYL-NH2)
[10]
  Kd: 1.44 ± 0.475 µM
[11]
  Kd: 0.097 ± 0.0516 µM
[12]
  Kd: 2.71 ± 1.95 µM
